# Values quoted from earlier work in patent US5565606A, “Synthesis of peptide aminoalkylamides and peptide hydrazides by the solid-phase method” (Hoechst Aktiengesellschaft, priority 1986, dated 1996).
# Like-named read-outs stand apart in the source and are kept apart here.
# Tests used:
# [1] = test system: amnesia induced by electric shock or scopolamine; details: s.c. administration, mice; from EP-A 179 332
# urge to groom and move = details: rats, from EP-A 179 332
# [2] = test system: choline content in the striatum; details: rats, s.c. administration of 10 μg; from EP-A 179 332
substance,measurement,setting,value
Met(O)-Glu-His-Phe-D-Lys-Phe-NH-(CH2)8 -NH2,"minimum effective dose, weakening of amnesia",[1],0.03 µg/kg
benzyloxycarbonyl-Lys-Phe-OMe,urge to groom and move,urge to groom and move; i.c.v. administration of 10 μg,cause the urge to groom and move
same,choline content in the striatum,[2],increased
benzyloxycarbonyl-D-Lys-Phe-NH-(CH2)8 -NH2.2HCl,urge to groom and move,urge to groom and move; i.c.v. administration of 1 μg,the same action
